According to US20090149453A1, “METHODS AND COMPOSITIONS FOR TREATING BACTERIAL INFECTIONS AND DISEASES ASSOCIATED THEREWITH” (ACTIVBIOTICS PHARMA LLC, priority 2002, published 2009):
≈ marks a conversion by molar mass, not a printed value. Entries after “also recorded” stand apart in the source; their conditions may differ. Read-outs that look alike come from different tables or passages of the source.

Assays:
Format in all cases: cell-based, Staphylococcus aureus
S. aureus = experiment: Frequency of resistant mutants; conditions: resistance to Rfz
Protocol: (§1) For log-phase studies, cells were grown to an optical density of 0.5 at 600 nm, which represents a culture density of 5×10^8 colony forming units (cfu)/ml for S. aureus and deviates from densities typically used in time-kill type assays (1×10^7 cfu/ml). We chose to start at a higher density because this density is more likely to reflect in vivo bioburden than lower starting densities. In addition, this starting density is critical for monitoring the emergence of ansamycin-resistant mutants because it insures that there is a starting resident population of such resistant mutants at the start of the experiment. The 10^−8 frequency of mutants to Rfz leads to a theoretical number of five mutants per ml of culture at this cell density.

[1] = system: S. aureus 29213, stationary-phase; experiment: Rif-resistant cfu/ml in drug-treated stationary-phase cultures; conditions: Example 3, stationary-phase, Van or Rfz alone; Van 15 μg/ml plus Rfz 0.1 μg/ml
Protocol: The emergence of Rif/Rfz-resistant cells in cultures in these experiments was monitored as previously described; the results are shown in FIG. 6.
(§2) For stationary phase studies, cultures were grown to an optical density of 2.2 to 2.4 at 600 nm, which represents approximately 5×10^9 cfu/ml; there would exist approximately 50 resistant mutants per nil in such a stationary phase culture. Drugs were added to the cultures to start the experiment, and then aliquots were removed at various time points, diluted in MHB if appropriate, and applied to 100 mm MHA and MHA plates containing Rif at 1 μg/ml. These plates were incubated at 35° C. for 18-24 hours, and then colonies manually counted to determine the number of cfu per nil of culture for the specific time-point/treatment. […] The Rif-containing plates were used to determine the number of Rfz-resistant bacteria present in the cultures for the specific time-point/treatment. Untreated control cultures were included in each experiment.

[2] = system: S. aureus strain ATCC 29213, log-phase
Protocol: In order to characterize the population of the cultures shown in FIG. 1, aliquots at the various time points/treatments were tested for the presence of Rif-resistant mutants.
Cultures were also examined as described above for the number of cfu/ml present that were resistant to Rif (FIG. 4).
as §1, §2

[3] = system: S. aureus 29213, stationary-phase; experiment: Viability (cfu/ml) of stationary-phase cultures exposed to drugs; conditions: for killing effect against stationary phase cultures (summary, words): stationary phase (non-multiplying), alone or in combination; for log killing of stationary-phase cultures: summary, over 48 hours, single drugs or combination
Protocol: Cultures of S. aureus 29213 were grown to stationary-phase (an OD of 2.2 to 2.4 at 600 nm), then treated with Van and Rfz, either alone or in combination (FIG. 5; concentrations listed are in μg/ml). Rfz was used at 0.1 μg/ml, while Van was used at 15 μg/ml and 30 μg/ml, the latter concentration based on the fact that the starting culture was at a much higher density than was the log-phase cultures used in the experiments described above. It was assumed that more Van might be required to give a prolonged killing effect. In addition, one culture was treated with 15 μg/ml Van at the start of the experiment and then again 24 hours later. At 0, 24 and 48 hours, the number of viable cells was determined by plating on non-selective medium as described above.
The bacterial strain used in this study was “wild-type” S. aureus strain ATCC 29213. The strain was grown in Mueller Hinton II Broth (MHB; cationadjusted; VWR) and on Mueller Hinton Agar (MHA; VWR) plates that were made according to the manufacturer's instructions. Van (Calbiochem) was resuspended in sterile water (Fisher) at 10 mg/ml, while Rif (Calbiochem) and Rfz (ActivBiotics) were resuspended in 100% DMSO (J. T. Baker) at 1 mg/ml. All drugs were stored at −80° C. in single-use aliquots.
S. aureus strain ATCC 29213 was grown on an MHA plate at 35° C. for 18 hours. Colonies (3-5) were used to inoculate 50-100 ml of cation-adjusted MHB in a 500 ml Ehrlenmeyer flask and grown at 37° C. in a water bath shaker at 240 rpm.
as §2

S. aureus 29213 = experiment: MIC testing according to NCCLS standard; conditions: S. aureus 29213, NCCLS standard MIC testing
[4] = system: S. aureus strain ATCC 29213, log-phase; experiment: Viability (cfu/ml) of log-phase cultures exposed to drugs, plated on non-selective MHA; conditions: for decrease in cfu/ml: drug alone: Rif 0.1 μg/ml (initial drop), Van 10 μg/ml

| Compound | frequency of mutants (S. aureus) | emergence of Rif/Rfz-resistant colonies [1] | Rif-resistant cfu ([2]; Example 1, log-phase, 0.1 μg/ml alone, in 24 hours) [logs] | appearance of Rif-resistant cfu in log-phase cultures (summary, words) ([2]; log-phase, Rfz single agent or co-treatment with Van) | decrease of cfu ([3]; Example 3, stationary-phase, Rfz 0.1 μg/ml alone) | killing effect against stationary phase cultures (summary, words) [3] | log killing of stationary-phase cultures [3] | MIC (S. aureus 29213) [µg/mL] | drop in cfu/ml (logs killed) ([4]; Example 1, log-phase, 0.1 μg/ml alone, in 4 hours) | reduction of cfu/ml of the culture (cidality) ([4]; Example 2, log-phase, Rfz 0.1 μg/ml (6.5× MIC) alone, within 6 hours) | cfu/ml level after regrowth ([4]; Example 2, log-phase, Rfz alone 0.1 or 0.025 μg/ml, over 48 hours) | reduction of cfu/ml at the lower concentration compared to the higher ([4]; log-phase, Rfz 0.025 μg/ml (1.6× MIC) vs 0.1 μg/ml (6.5× MIC)) | emergence of Rif-resistant cells ([2]; Example 1, log-phase, Van 10 μg/ml alone or with Rif/Rfz 0.1 μg/ml) | viability of the cultures during treatment ([3]; Example 3, stationary-phase, Van alone 15 or 30 μg/ml) | decrease in cfu/ml ([4]; Example 1, log-phase) [log] | significant killing ([4]; log-phase dense cultures, Van alone, after 48 hours of treatment) [logs] | killing effect at increased concentration ([4]; log-phase, vancomycin alone 15 μg/ml) | Rif-resistant cfu [2] [logs] | MIC (S. aureus 29213; Staphylococcus aureus, read-out: MIC) [µg/mL] |
| --- | --- | --- | --- | --- | --- | --- | --- | --- | --- | --- | --- | --- | --- | --- | --- | --- | --- | --- | --- |
| 3′-hydroxy-5′-(4-isobutyl-1-piperazinyl) benzoxazinorifamycin [Rfz] | 10^−8 | Resistant colonies did not appear | 8 | dramatic increase in Rif-resistant cfu/ml within 10 hours | about 1 log | little or no killing effect | approximately 1 log | 0.015 | approximately 3.5 logs | approximately 3 logs | approximately 10×10^8 cfu/ml | just as effective; also recorded: as effective as 6.5× the MIC levels |  |  |  |  |  |  |  |
| CN[C@H](CC(C)C)C(=O)N[C@H]1C(=O)N[C@@H](CC(N)=O)C(=O)N[C@H]2C(=O)N[C@H]3C(=O)N[C@H](C(=O)N[C@H](C(=O)O)c4cc(O)cc(O)c4-c4cc3ccc4O)[C@H](O)c3ccc(c(Cl)c3)Oc3cc2cc(c3O[C@@H]2O[C@H](CO)[C@@H](O)[C@H](O)[C@H]2O[C@H]2C[C@](C)(N)[C@H](O)[C@H](C)O2)Oc2ccc(cc2Cl)[C@H]1O [Van, vancomycin, reference compound] |  | Resistant colonies did not appear |  |  |  | little or no killing effect | approximately 1 log |  |  |  |  |  | little or no increase in the number of Rif-resistant cells | did not decrease significantly | 0.5 | 3 | sufficient for sustained killing |  |  |
| CO[C@H]1/C=C/O[C@@]2(C)Oc3c(C)c(O)c4c(O)c(c(/C=N/N5CCN(C)CC5)c(O)c4c3C2=O)NC(=O)/C(C)=C\C=C\[C@H](C)[C@H](O)[C@@H](C)[C@@H](O)[C@@H](C)[C@H](OC(C)=O)[C@@H]1C [Rif, rifampicin, reference compound] |  |  |  |  |  |  |  |  |  |  |  |  |  |  | ~2.5 |  |  | 8 | 0.015 (≈ 0.0182 µM) |
